22 compounds from patent US20240368135A1 (VERTEX PHARMACEUTICALS INCORPORATED, priority 2021, published 2024) can be followed below.

This test concerns the target human NaV 1.8 (Homo sapiens, UniProt Q9Y5Y9). The experiment in a line: E-VIPR assay detecting and measuring NaV inhibition properties. In kind it is cell-based. Conditions: HEK cells expressing truncated human NaV 1.8. In a few lines: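 Membrane potential was followed by coumarin/oxonol FRET during electrical field stimulation of matrigel-seeded HEK cells carrying truncated human NaV1.8 plus KIR2.1. Dosing used 11 points, 3-fold steps, top 300 nM final, 0.625% DMSO, with or without 25% human serum.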

Where [1] appears, read: no human serum, read-out: IC50 in the E-VIPR Assay.
[2] abbreviates: in the presence of human serum (compound numbers followed by *), read-out: IC50 in the E-VIPR Assay, performed in the presence of human serum.

Each structure is given as a SMILES string. Like-named read-outs stand apart in the source and are kept apart here.

Sequence of human NaV 1.8 (Q9Y5Y9 126-399 limits assumed): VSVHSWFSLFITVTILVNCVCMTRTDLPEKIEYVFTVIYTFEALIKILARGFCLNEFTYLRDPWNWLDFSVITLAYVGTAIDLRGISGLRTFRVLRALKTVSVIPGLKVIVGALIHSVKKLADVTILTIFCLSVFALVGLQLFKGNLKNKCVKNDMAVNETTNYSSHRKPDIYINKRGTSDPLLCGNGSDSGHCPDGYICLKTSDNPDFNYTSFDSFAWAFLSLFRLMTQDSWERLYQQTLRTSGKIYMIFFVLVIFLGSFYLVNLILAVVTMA
Sequence of human NaV 1.8 (Q9Y5Y9 660-890 limits assumed): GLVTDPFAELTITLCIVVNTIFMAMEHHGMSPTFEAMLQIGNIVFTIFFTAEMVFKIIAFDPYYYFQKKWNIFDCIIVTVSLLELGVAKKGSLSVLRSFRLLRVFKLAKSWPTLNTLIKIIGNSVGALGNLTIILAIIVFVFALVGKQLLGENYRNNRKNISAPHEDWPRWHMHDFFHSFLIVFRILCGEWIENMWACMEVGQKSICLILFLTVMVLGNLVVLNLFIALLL
Sequence of human NaV 1.8 (Q9Y5Y9 1148-1722 limits assumed): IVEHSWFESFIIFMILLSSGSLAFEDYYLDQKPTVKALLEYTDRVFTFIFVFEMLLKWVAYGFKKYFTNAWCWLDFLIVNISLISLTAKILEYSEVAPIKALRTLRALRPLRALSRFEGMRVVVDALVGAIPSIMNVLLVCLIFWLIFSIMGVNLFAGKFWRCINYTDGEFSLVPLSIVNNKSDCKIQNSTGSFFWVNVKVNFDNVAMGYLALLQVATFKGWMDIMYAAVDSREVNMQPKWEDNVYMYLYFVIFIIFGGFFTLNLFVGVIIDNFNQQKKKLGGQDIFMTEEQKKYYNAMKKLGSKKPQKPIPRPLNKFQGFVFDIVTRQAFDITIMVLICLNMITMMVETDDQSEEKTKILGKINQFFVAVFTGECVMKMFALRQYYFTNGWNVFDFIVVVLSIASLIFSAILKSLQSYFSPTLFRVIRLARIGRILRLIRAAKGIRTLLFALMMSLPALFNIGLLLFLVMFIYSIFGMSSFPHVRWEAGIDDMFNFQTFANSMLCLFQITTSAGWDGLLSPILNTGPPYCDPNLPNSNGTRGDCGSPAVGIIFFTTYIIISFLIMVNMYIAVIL

For `Cc1oncc1NC(=O)C1OC(C)(C(F)(F)F)C(C)C1c1ccc(F)c(F)c1OC1CC(O)C1` [Compound 656, (2R,3S,4S,5R)-3-(3,4-difluoro-2-((1S,3R)-3-hydroxycyclobutoxy)phenyl)-4,5-dimethyl-N-(5-methylisoxazol-4-yl)-5-(trifluoromethyl)tetrahydrofuran-2-carboxamide], the concentration for half-maximal inhibition (IC50) under setting [1] is 10 to 100 nM.

As for `COc1c(C2C(C(=O)Nc3ccnc(S(C)(=N)=O)c3)OC(C)(C(F)(F)F)C2C)ccc(F)c1F` (single isomer, unassigned) [Compound 53, 3-(3,4-difluoro-2-methoxy-phenyl)-4,5-dimethyl-N-[2-(methylsulfonimidoyl)-4-pyridyl]-5-(trifluoromethyl)tetrahydrofuran-2-carboxamide], the IC50 under setting [1] was in the range of 100 to 1000 nM.

Consider `COc1c([C@H]2[C@H](C(=O)NCC3COC(C)(C)C3)O[C@@](C)(C(F)(F)F)[C@H]2C)ccc(F)c1F` (stereo partly drawn) [Compound 284, (2R,3S,4S,5R)-3-(3,4-difluoro-2-methoxyphenyl)-N-((5,5-dimethyltetrahydrofuran-3-yl)methyl)-4,5-dimethyl-5-(trifluoromethyl)tetrahydrofuran-2-carboxamide], for which, under setting [1], the IC50 was at least 1000 nM.

For the compound `COc1c([C@H]2[C@H](C(=O)NC3CCN(C(N)=O)CC3)O[C@@](C)(C(F)(F)F)[C@H]2C)ccc(F)c1F` [Compound 303, 4-((2R,3S,4S,5R)-3-(3,4-difluoro-2-methoxyphenyl)-4,5-dimethyl-5-(trifluoromethyl)tetrahydrofuran-2-carboxamido)piperidine-1-carboxamide], under setting [1], the IC50 is at least 1000 nM.

In the case of `C[C@H]1[C@@H](c2ccc(F)c(F)c2OCCO)[C@H](C(=O)Nc2cnc3nnn(C)c3c2)O[C@@]1(C)C(F)(F)F` [Compound 565, (2R,3S,4S,5R)-3-(3,4-difluoro-2-(2-hydroxyethoxy)phenyl)-4,5-dimethyl-N-(1-methyl-1H-[1,2,3]triazolo[4,5-b]pyridin-6-yl)-5-(trifluoromethyl)tetrahydrofuran-2-carboxamide], under setting [1], the IC50 lay within 10 to 100 nM.

Regarding `CNc1cc(NC(=O)[C@@H]2O[C@@](C)(C(F)(F)F)[C@@H](C)[C@H]2c2ccc(F)c(F)c2OC)ccn1` [Compound 387, (2R,3S,4S,5R)-3-(3,4-difluoro-2-methoxyphenyl)-4,5-dimethyl-N-(2-(methylamino)pyridin-4-yl)-5-(trifluoromethyl)tetrahydrofuran-2-carboxamide], the IC50 under setting [1] was in the range of 10 to 100 nM.

As to `COc1c([C@H]2[C@H](C(=O)Nc3cnnc(C(C)(C)O)c3)O[C@@](C)(C(F)(F)F)[C@H]2C)ccc(F)c1F` [Compound 219, (2R,3S,4S,5R)-3-(3,4-difluoro-2-methoxy-phenyl)-N-[6-(1-hydroxy-1-methyl-ethyl)pyridazin-4-yl]-4,5-dimethyl-5-(trifluoromethyl)tetrahydrofuran-2-carboxamide], the IC50 under setting [1] was under 10 nM.

Take `COc1c([C@H]2[C@H](C(=O)NC3(Cc4ccccc4)CC3)O[C@@](C)(C(F)(F)F)[C@H]2C)ccc(F)c1F` [Compound 291, (2R,3S,4S,5R)-N-(1-benzylcyclopropyl)-3-(3,4-difluoro-2-methoxyphenyl)-4,5-dimethyl-5-(trifluoromethyl)tetrahydrofuran-2-carboxamide]: the 50% inhibitory concentration (IC50) under setting [1] is at least 1000 nM.

`CCOc1c([C@@H]2[C@@H](C(=O)Nc3ccn4nnnc4c3)O[C@](C)(C(F)(F)F)[C@@H]2C)ccc(F)c1C` (stereo in doubt) [Compound 122, rel-(2S,3R,4R,5S)-3-(2-ethoxy-4-fluoro-3-methylphenyl)-4,5-dimethyl-N-(tetrazolo[1,5-a]pyridin-7-yl)-5-(trifluoromethyl)tetrahydrofuran-2-carboxamide]: the IC50 under setting [1] fell in the range of 100 to 1000 nM.

On to `COc1c(C2C(C(=O)Nc3ccnc(C(O)C(C)O)c3)OC(C)(C(F)(F)F)C2C)ccc(F)c1C` (single isomer, unassigned) [Compound 146], for which the IC50 under setting [2] is at least 1000 nM.

For `COc1c([C@H]2[C@H](C(=O)Nc3ccnc(N4CCN[C@H](C)C4=O)c3)O[C@@](C)(C(F)(F)F)[C@H]2C)ccc(F)c1F` [Compound 484, (2R,3S,4S,5R)-3-(3,4-difluoro-2-methoxyphenyl)-4,5-dimethyl-N-(2-((R)-3-methyl-2-oxopiperazin-1-yl)pyridin-4-yl)-5-(trifluoromethyl)tetrahydrofuran-2-carboxamide], the IC50 under setting [1] was in the range of 10 to 100 nM.

With `COc1c([C@H]2[C@H](C(=O)Nc3ccnc(N4CC(N)CC4=O)c3)O[C@@](C)(C(F)(F)F)[C@H]2C)ccc(F)c1F` (single isomer, unassigned) [Compound 496, rel-(2R*,3S*,4S*,5R*)-N-(2-(4-amino-2-oxopyrrolidin-1-yl)pyridin-4-yl)-3-(3,4-difluoro-2-methoxyphenyl)-4,5-dimethyl-5-(trifluoromethyl)tetrahydrofuran-2-carboxamide], the IC50 under setting [1] lay within 10 to 100 nM.

With `COc1c([C@H]2[C@H](C(=O)Nc3ccc(NS(C)(=O)=O)nc3)O[C@@](C)(C(F)(F)F)[C@H]2C)ccc(F)c1F` [Compound 526, (2R,3S,4S,5R)-3-(3,4-difluoro-2-methoxy-phenyl)-N-[6-(methanesulfonamido)-3-pyridyl]-4,5-dimethyl-5-(trifluoromethyl)tetrahydrofuran-2-carboxamide], the IC50 under setting [1] lay within 10 to 100 nM.

Turning to `COCCOc1c([C@H]2[C@H](C(=O)Nc3cnn(C(C)(C)CO)c3)O[C@@](C)(C(F)(F)F)[C@H]2C)ccc(F)c1F` [Compound 582, (2R,3S,4S,5R)-3-(3,4-difluoro-2-(2-methoxyethoxy)phenyl)-N-(1-(1-hydroxy-2-methylpropan-2-yl)-1H-pyrazol-4-yl)-4,5-dimethyl-5-(trifluoromethyl)tetrahydrofuran-2-carboxamide], the 50% inhibitory concentration (IC50) under setting [1] lay in the range of 100 to 1000 nM.

In the case of `C[C@H]1[C@@H](c2ccc(F)c(F)c2OCCO)[C@H](C(=O)Nc2cnn(CC#N)c2)O[C@@]1(C)C(F)(F)F` [Compound 549, (2R,3S,4S,5R)-N-(1-(cyanomethyl)-1H-pyrazol-4-yl)-3-(3,4-difluoro-2-(2-hydroxyethoxy)phenyl)-4,5-dimethyl-5-(trifluoromethyl)tetrahydrofuran-2-carboxamide], under setting [1], the IC50 is 100 to 1000 nM.

On to `COc1c(C2C(C(=O)Nc3cncnc3)OC(C)(C(F)(F)F)C2C)ccc(F)c1F` (single isomer, unassigned) [Compound 38, 3-(3,4-difluoro-2-methoxy-phenyl)-4,5-dimethyl-N-pyrimidin-5-yl-5-(trifluoromethyl)tetrahydrofuran-2-carboxamide], for which the 50% inhibitory concentration (IC50) under setting [1] was under 10 nM.

Take `COc1c([C@H]2[C@H](C(=O)Nc3ccn4c(=O)n(CCO)nc4c3)O[C@@](C)(C(F)(F)F)[C@H]2C)ccc(F)c1F` [Compound 430, (2R,3S,4S,5R)-3-(3,4-difluoro-2-methoxy-phenyl)-N-[2-(2-hydroxyethyl)-3-oxo-[1,2,4]triazolo[4,3-a]pyridin-7-yl]-4,5-dimethyl-5-(trifluoromethyl)tetrahydrofuran-2-carboxamide]: the half-inhibitory concentration (IC50) under setting [1] lay in the range of 10 to 100 nM.

With `COCc1c(F)ccc([C@H]2[C@H](C(=O)Nc3ccc(C(N)=O)nc3)O[C@@](C)(C(F)(F)F)[C@H]2C)c1OC` (stereo in doubt) [Compound 179, rel-5-((2R,3S,4S,5R)-3-(4-fluoro-2-methoxy-3-(methoxymethyl)phenyl)-4,5-dimethyl-5-(trifluoromethyl)tetrahydrofuran-2-carboxamido)picolinamide], under setting [1], the concentration for half-maximal inhibition (IC50) lay within 10 to 100 nM.

With `COc1c([C@H]2[C@H](C(=O)Nc3ccnc(CCO)c3)O[C@@](C)(C(F)(F)F)[C@H]2C)ccc(F)c1F` [Compound 385, (2R,3S,4S,5R)-3-(3,4-difluoro-2-methoxyphenyl)-N-(2-(2-hydroxyethyl)pyridin-4-yl)-4,5-dimethyl-5-(trifluoromethyl)tetrahydrofuran-2-carboxamide], under setting [1], the IC50 was under 10 nM.

`COc1c(C2C(C(=O)Nc3ccnc(C(C)(O)CO)c3)OC(C)(C)C2C)ccc(F)c1F` (single isomer, unassigned) [Compound 725, rel-3-(3,4-difluoro-2-methoxyphenyl)-N-(2-(1,2-dihydroxypropan-2-yl)pyridin-4-yl)-4,5,5-trimethyltetrahydrofuran-2-carboxamide]: under setting [2], the half-inhibitory concentration (IC50) is at least 1000 nM.

Consider `COc1c(C2CC(C)(C(F)(F)F)OC2C(=O)Nc2ccnc(C(O)C(C)O)c2)ccc(F)c1F` (single isomer, unassigned) [Compound 693], for which the IC50 under setting [2] is at least 1000 nM.

`COCCOc1cc(NC(=O)C2OC(C)(C(F)(F)F)C(C)C2c2ccc(F)c(F)c2OC)cnn1` (single isomer, unassigned) [Compound 34, 3-(3,4-difluoro-2-methoxy-phenyl)-N-[6-(2-methoxyethoxy)pyridazin-4-yl]-4,5-dimethyl-5-(trifluoromethyl)tetrahydrofuran-2-carboxamide]: under setting [1], the 50% inhibitory concentration (IC50) lay within 10 to 100 nM.

Broadly, the IC50 is the midpoint of a concentration-inhibition curve.
